Results as given in patent EP3119416B1, “THERAPEUTIC USE OF ADIPOKINETIC HORMONE/RED PIGMENT-CONCENTRATING HORMONE (AKH/RPCH) FAMILY OF PEPTIDES” (Mutlu, Oguz, priority 2015, dated 2017).
Square brackets hold non-standard residues; d marks the D form. Peptide text beside a SMILES is read from it. pGlu = O=C1CC[C@@H](C(=O)O)N1

Key:
BALB/c ByJ mice [1] = test: Elevated Plus-Maze Test (EPM); assay type: in vivo
Procedure: (§1) Male, inbred BALB/c ByJ mice (Uludag University, Bursa, Turkey), 7-8 weeks old at their arrival to the laboratory, were used in this study. They were kept in the laboratory for two weeks before the onset of the experiments. Mice were maintained under standard laboratory conditions (12-h light: 12-h dark cycle, lights on 07:00 h, T=21±1°C). All animals received food and water ad libitum. All procedures described in this assay were conducted in accordance with the European Community Council's Directive for the ethical treatment of animals (86/609/EEC) and with the approval of the Kocaeli University Medical Faculty (7/3/2014).
(§2) In the FST, EPM, and locomotor activity tests, the animals were treated with Ani-AKH (1 and 2 mg/kg) (n=9-10), Lia-AKH (1 and 2 mg/kg) (n=10-12) and Pht-HrTH (1 and 2 mg/kg) (n=10-12) or vehicle (saline with 1% DMSO) (n= 10) for 14 days (chronically) and the drugs were administered intraperitoneally (i.p.) 60 min. before each test in a volume of 0.1 ml/10 g body weight. Separate group of animals used in each test.
In addition, in the EPM (acute) test, Ani- AKH (0.5 and 1 mg/kg) (n= 10 per group) was also administered, just for one time, before the test to investigate the acute effect of the hormone.
Anxiety related behaviour was measured by the elevated plus-maze test. Experiments were conducted in a dimly lit, semi-soundproof room, illuminated with table lamp (80 lux). Maze was made of wood and consisted of two open (29 cm long × 5 cm wide) and closed arms (29 cm × 5 cm with 15 cm high walls) forming a square cross with a 5 cm square center piece. In order to avoid falls the open arms was surrounded by a short (1 cm) Plexiglas edge. The maze was elevated 40 cm above the floor. Each mice was placed at the center of the maze, facing one of the open arms, and was allowed to explore the maze. The open-arm activity was evaluated as: 1) time spent in the open arms relative to the total time spent in the plus maze (300 s), expressed as a percentage 2) number of entries into the open arms relative to the total number of entries into both open and closed arms, expressed as a percentage. These values were accepted as indexes of anxiety in mice.
(§3) The results of the FST, EPM, locomotor activity tests were evaluated by one-way ANOVA followed by Tukey's post-hoc test when significant differences were detected. The data are expressed as the mean values ± SEM. The differences were considered to be statistically significant when p was less than 0.05.

BALB/c ByJ mice [2] = test: Locomotor activity test (open field); assay type: in vivo; conditions: for locomotion enhancing effects in the locomotor activity test: male balb-c mice
Procedure: as §1, §2
Locomotor activity was measured using an open field test in a square arena (40 x 40 x 40 cm box). The animal was placed in the center of the apparatus and behaviours were recorded for a period of 5 min using the Etovision-XT video tracking system. The locomotor activity was evaluated by measuring the total distance travelled (cm) in the apparatus and the speed (cm/s) of the animals.
as §3

BALB/c ByJ mice [3] = test: Forced Swim Test (FST); assay type: in vivo; conditions: for immobility time: 60 min before test, compared to control group, Fig 1a/1b; for antidepressant effects in the forced swimming test: male balb-c mice
Procedure: as §1, §2
The FST employed was similar to a previously described method (Porsolt et al, 1977). Briefly, the mice were dropped individually into Plexiglas cylinders (height 25 cm, diameter 10 cm) containing 10 cm of water maintained at 23-25°C and left there for 6 min. Because this is a situation from which they cannot escape, the animals rapidly become immobile, that is, floating in an upright position and making only small movements to keep their heads above water. The duration of immobility was recorded during the last 4 min of the 6-min testing period.
as §3

[4] = system: adult females of the firebug, Pyrrhocoris apterus (L.); conditions: adult female firebugs, cited from earlier work; for walking activity: simultaneously with elevation of lipid level in the haemolymph
Albino Swiss mice [5] = conditions: cited from earlier work
Albino Swiss mice [6] = conditions: administered intracerebroventricularly to mice; cited from earlier work
Albino Swiss mice [7] = conditions: injection to Albino Swiss mice (20-25 g); cited from earlier work
Albino Swiss mice [8] = conditions: cited from earlier work; remark: listed apart in the source
[9] = system: Emperor dragonfly, Anax imperator; conditions: low concentrations of the synthetic peptide injected into the Emperor dragonfly; cited from earlier work
[10] = chronic, 1 mg/kg i.p. for 14 days, Fig 2c/2e
[11] = chronic, 1 mg/kg i.p. for 14 days, Fig 2d/2f
[12] = chronic, 2 mg/kg i.p. for 14 days, Fig 2c/2e
[13] = chronic, 2 mg/kg i.p. for 14 days, Fig 2d/2f
[14] = 2 mg/kg i.p. for 14 days, compared to control, Fig 3a/3c
[15] = 2 mg/kg i.p. for 14 days, compared to control, Fig 3b/3d

CC(C)C[C@H](NC(=O)[C@@H]1CCC(=O)N1)C(=O)N[C@H](C(=O)N[C@@H](Cc1ccccc1)C(=O)N[C@@H](CO)C(=O)N1CCC[C@H]1C(=O)N[C@@H](CC(=O)O)C(=O)N[C@@H](Cc1c[nH]c2ccccc12)C(N)=O)[C@@H](C)O [Pht-HrTH, 5-oxo-L-prolyl-L-leucyl-L-threonyl-L-phenylalanyl-L-seryl-L-prolyl-L-alfa-aspartyl-L-Tryptophanamide] ([pGlu]LTFSPDW-NH2)
%time spent in the open arms (BALB/c ByJ mice [1]; [10]): significantly increased | %open arm/total arm entries (BALB/c ByJ mice [1]; [11]): significantly increased | %time spent in the open arms (BALB/c ByJ mice [1]; [12]): significantly increased | %open arm/total arm entries (BALB/c ByJ mice [1]; [13]): significantly increased | anxiolytic effects in the elevated plus maze test (BALB/c ByJ mice [1]; given chronically, 1 mg/kg): had anxiolytic effects | anxiolytic effects in the elevated plus maze test (BALB/c ByJ mice [1]; given chronically, 2 mg/kg): had anxiolytic effects | locomotion enhancing effects in the locomotor activity test (BALB/c ByJ mice [2]; dose not given, i.p.): had locomotion enhancing effects | total distance moved (BALB/c ByJ mice [2]; dose not printed in the sentence (groups 1 and 2 mg/kg i.p. for 14 days), Fig 3c): increased | speed of the animals (BALB/c ByJ mice [2]; dose not printed in the sentence (groups 1 and 2 mg/kg i.p. for 14 days), Fig 3d): increased | immobility time (BALB/c ByJ mice [3]; 1 mg/kg i.p. for 14 days): significantly diminished | antidepressant effects in the forced swimming test (BALB/c ByJ mice [3]; 1 mg/kg i.p.): had antidepressant effects | immobility time (BALB/c ByJ mice [3]; 2 mg/kg i.p. for 14 days): significantly diminished | antidepressant effects in the forced swimming test (BALB/c ByJ mice [3]; 2 mg/kg i.p.): had antidepressant effects

NCCc1c[nH]c2ccc(O)cc12 [serotonin]
mobilization of the fat body lipids [4]: mobilized

[pGlu]VNFSPNW-NH2 [periplanetin CC-1]
influence on the electric convulsions (Albino Swiss mice [5]): no influence | peripheral blood glucose level (Albino Swiss mice [6]): did not increase | analgesic activity (Albino Swiss mice [7]): strong analgesic activity | mortality in pentetrazole-induced seizures (Albino Swiss mice [8]): increased | threshold for tonic seizures (Albino Swiss mice [8]; pentetrazole-induced seizures): decreased

NCCc1c[nH]cn1 [histamine]
mobilization of the fat body lipids [4]: mobilized

NCC(O)c1ccc(O)cc1 (stereo not shown) [octopamine]
mobilization of the fat body lipids [4]: mobilized

NCCc1ccc(O)c(O)c1 [dopamine]
AKHs level in haemolymph [4]: decreased | level of AKHs in CNS [4]: no effect | mobilization of the fat body lipids [4]: mobilized | walking activity [4]: capable to enhance

CC(C)[C@H](NC(=O)[C@@H]1CCC(=O)N1)C(=O)N[C@@H](CC(N)=O)C(=O)N[C@@H](Cc1ccccc1)C(=O)N[C@@H](CO)C(=O)N1CCC[C@H]1C(=O)N[C@@H](CO)C(=O)N[C@@H](Cc1c[nH]c2ccccc12)C(N)=O [Ani-AKH, 5-oxo-L-prolyl-L-valyl-L-asparaginyl-L-phenylalanyl-L-seryl-L-prolyl-L-seryl-L-Tryptophanamide] ([pGlu]VNFSPSW-NH2)
haemolymph lipid concentration [9]: increased | %time spent in the open arms (BALB/c ByJ mice [1]; acute, 0.5 mg/kg i.p., one time before the test, Fig 2a): significantly increased | %open arm/total arm entries (BALB/c ByJ mice [1]; acute, 1 mg/kg i.p., one time before the test, Fig 2b): significantly increased | anxiolytic effects in the elevated plus maze test (BALB/c ByJ mice [1]; administered acutely, 0.5 mg/kg): had anxiolytic effects | anxiolytic effects in the elevated plus maze test (BALB/c ByJ mice [1]; administered acutely, 1 mg/kg): had anxiolytic effects | %time spent in the open arms (BALB/c ByJ mice [1]; [10]): didn't alter | %open arm/total arm entries (BALB/c ByJ mice [1]; [11]): didn't alter | %time spent in the open arms (BALB/c ByJ mice [1]; [12]): didn't alter | %open arm/total arm entries (BALB/c ByJ mice [1]; [13]): didn't alter | total distance moved (BALB/c ByJ mice [2]; [14]): increased | speed of the animals (BALB/c ByJ mice [2]; [15]): increased | locomotion enhancing effects in the locomotor activity test (BALB/c ByJ mice [2]; 2 mg/kg i.p.): had locomotion enhancing effects | immobility time (BALB/c ByJ mice [3]; 1 mg/kg i.p. for 14 days): significantly diminished | antidepressant effects in the forced swimming test (BALB/c ByJ mice [3]; 1 mg/kg i.p.): had antidepressant effects | immobility time (BALB/c ByJ mice [3]; 2 mg/kg i.p. for 14 days): significantly diminished | antidepressant effects in the forced swimming test (BALB/c ByJ mice [3]; 2 mg/kg i.p.): had antidepressant effects

NC[C@H](O)c1ccc(O)c(O)c1 [norepinephrine]
AKHs level in haemolymph [4]: increased | level of AKHs in CNS [4]: no effect | mobilization of the fat body lipids [4]: mobilized | walking activity [4]: capable to enhance

CC(C)[C@H](NC(=O)[C@@H]1CCC(=O)N1)C(=O)N[C@@H](CC(N)=O)C(=O)N[C@@H](Cc1ccccc1)C(=O)N[C@H](C(=O)N1CCC[C@H]1C(=O)N[C@@H](CO)C(=O)N[C@@H](Cc1c[nH]c2ccccc12)C(N)=O)[C@@H](C)O [Lia-AKH, 5-oxo-L-prolyl-L-valyl-L-asparaginyl-L-phenylalanyl-L-threonyl-L-prolyl-L-seryl-L-Tryptophanamide] ([pGlu]VNFTPSW-NH2)
%time spent in the open arms (BALB/c ByJ mice [1]; [12]): significantly increased | %open arm/total arm entries (BALB/c ByJ mice [1]; [13]): significantly increased | anxiolytic effects in the elevated plus maze test (BALB/c ByJ mice [1]; given chronically, 2 mg/kg): had anxiolytic effects | total distance moved (BALB/c ByJ mice [2]; 1 mg/kg i.p. for 14 days, compared to control, Fig 3c): increased | speed of the animals (BALB/c ByJ mice [2]; 1 mg/kg i.p. for 14 days, compared to control, Fig 3d): increased | locomotion enhancing effects in the locomotor activity test (BALB/c ByJ mice [2]; 1 mg/kg i.p.): had locomotion enhancing effects | total distance moved (BALB/c ByJ mice [2]; [14]): increased | speed of the animals (BALB/c ByJ mice [2]; [15]): increased | locomotion enhancing effects in the locomotor activity test (BALB/c ByJ mice [2]; 2 mg/kg i.p.): had locomotion enhancing effects | immobility time (BALB/c ByJ mice [3]; 1 mg/kg i.p. for 14 days): significantly diminished | antidepressant effects in the forced swimming test (BALB/c ByJ mice [3]; 1 mg/kg i.p.): had antidepressant effects | immobility time (BALB/c ByJ mice [3]; 2 mg/kg i.p. for 14 days): significantly diminished | antidepressant effects in the forced swimming test (BALB/c ByJ mice [3]; 2 mg/kg i.p.): had antidepressant effects
